Patent US11191811B2, “Osteocalcin as a treatment for frailty associated with aging” (THE TRUSTEES OF COLUMBIA UNIVERSITY IN THE CITY OF NEW YORK, priority 2014, dated 2021)

Tested on: Leydig cells
Assay: Testosterone production by testis explants or primary Leydig cells
Type: cell-based, mouse
Conditions: recombinant uncarboxylated osteocalcin 0-100 ng/ml of culture medium (FIG. 10)
Procedure: FIG. 10. Osteocalcin favors male fertility by increasing testosterone production by Leydig cells. (A-B) Testosterone production by testis explants (A) or primary Leydig cells (B) cultured in the presence of supernatants of wild type (WT) or Osteocalcin^−/− osteoblast cultures. (C-D) Testosterone production by testis explants (C) or primary Leydig cells (D) following stimulation with increasing doses of recombinant uncarboxylated osteocalcin (0, 0.3, 1, 3, 10, 100 ng/ml of culture medium). (E) Circulating testosterone levels in WT mice 1 hour, 4 hours, and 8 hours after vehicle or recombinant uncarboxylated osteocalcin (3 ng/g of body weight) injection. (F-G) Comparison between the average litter size (F) and frequency (G) generated by WT, Osteocalcin^−/−, or Esp^−/− male littermate mice crossed with WT females (breeding was tested from 6 to 16 weeks of age). (H-L) Testis size (H), testis weight (I), epididymides weight (J), seminal vesicles weight (K), and sperm count (L) in Osteocalcin^−/− and Esp^−/− compared to WT littermate mice. (M) Circulating steroid sex hormone levels in Osteocalcin^−/− and Esp^−/− compared to WT littermate mice. The analyses were performed on breeder and non-breeder mice. Error bars represent SEM. Student's t test (*) P<0.05, (**) P<0.001.

Substance: uncarboxylated osteocalcin: Recombinant uncarboxylated mouse osteocalcin, bacterially produced, purified on glutathione beads and cleaved from the GST subunit by thrombin (YLGASVPSPDPLEPTREQCELNPACDELSDQYGLKTAYKRIYGITI)
- testosterone production by Leydig cells: increasing
